Measurements published in patent publication US20130210034A1, “COMPLEX PHOSPHOPROTEIN ACTIVATION PROFILES” (BECKMAN COULTER, INC., priority 2005, published 2013).

Legend:
pS6 = experiment: Phosphoprotein kinetic profiles in bone marrow samples from healthy donors; assay type: cell-based, human; details: at 4 min; 100 μM U0126
Procedure: (§1) Phosphoprotein kinetic profiles were analyzed in bone marrow aspiration samples from nine healthy, adult donors (i.e., normal bone marrow or NBM) and from five AML patients. Samples from healthy donors included 5 males and 4 females, ranging in age from 26 to 49 years. Approximately 10 to 20 mL of bone marrow (BM) samples were collected from the posterior iliac crest of the volunteers using IRB approved protocols. The BM samples were filtered using a 40 μm Nylon cell strainer to remove marrow particles and the white blood cell concentration determined using a blood analyzer. […] The samples were immediately used for subsequent experimentation.
(§2) To assess the signal transduction response after growth factor simulation, 100 to 200 μL of processed samples including about 2×10^6 WBC/100 μL were added to tubes and incubated at 37° C. for 30 minutes. For inhibition experiments, cells were incubated with 100 μM U0126, 1 μg/mL rapamycin, or both for at least 20 minutes prior to cytokine addition and in all cases for 30 min prior to formaldehyde addition. […] After stimulation the cells were immediately fixed by the addition of formaldehyde to a final concentration of 4% v/v and incubated for 10 minutes at room temperature. Following fixation, red blood cells were lysed by the addition of TRITON-X/PBS solution (0.1% v/v final concentration Triton X-100) supplemented with a 1 x phosphatase inhibitor cocktail (PIC; final concentrations: 0.2 mM sodium orthovanadate, 2 mM sodium pyrophosphate decahydrate, 2 mM [3-glycerophosphate, and 10 mM sodium fluoride) and incubation at 37° C. for 20 minutes. The incubated solution was chilled by the addition of ice-cold Wash Buffer (final concentration 1×PBS and either 4% bovine serum albumin (BSA) or 4% heat-inactivated fetal bovine serum (FBS), supplemented with 1×PIC), and the samples were centrifuged at 300 g for 6 minutes at 4° C.). If the lysis was incomplete, samples were retreated with 0.1% Triton X-100 at 37° C. for 10 to 20 minutes. After removal of the supernatant, cells were washed twice in ice-cold Wash Buffer supplemented with 1×PIC and permeabilized by the addition of pre-chilled 80% methanol while simultaneously vortexing the tube and incubated on ice for 10 minutes. Methanol was removed by centrifugation, the pellet was washed with ice-cold 1×PBS, and non-specific binding was blocked by the addition of ice-cold Wash Buffer supplemented with 1×PIC and incubation at 4° C. for a minimum of 30 minutes.
(§3) To stain cells with fluorescent conjugated monoclonal antibodies, the incubated solution was centrifuged to remove the supernatant and the pellet was incubated for 60 minutes at 4° C. with an antibody staining solution including 0.25 μg to 0.50 μg of pS6-Pacific Blue, pERK-ALEXA 488, pSTAT5-ALEXA 647, CD34-PE, CD45-PerCP, and CD117-PC7. Samples were washed three times with ice-cold Wash Buffer supplemented with 1×PIC, resuspended in 0.5 mL ice-cold Wash Buffer supplemented with 1×PIC including 0.5 μg/mL DAPI, and analyzed by flow cytometryusing a BD LSR II Flow Cytometer, equipped with a High Throughput Sampler (HTS).
(§4) First, doublets, aggregates, and debris were excluded by gating on single cell events in the SSC-Area versus SSC-Height histogram. Then, in events passing through this gate, debris near the origin of the FSC-Area versus SSC-Area plot (gray in FIG. 4A) was excluded by drawing a gate around an area encompassing, primarily, lymphocytes, monocytes, and granulocytes (LMG, black in FIG. 4A). Next, in cells passing through the LMG gate, the blast region (circle in FIG. 4B) was identified in the CD45 versus SSC-Area histogram (FIG. 4B). From this blast population, CD34+, CD117+ cells were identified in the CD34 versus CD117 plot (boxed area in FIG. 4C).

pERK = experiment: as above; assay type: cell-based, human; details: 100 μM U0126 pre-incubation; healthy donor CD34^+, CD117^+ cells
Procedure: as §1, §2, §3, §4

N#CC(=C(/N)Sc1ccccc1N)/C(C#N)=C(\N)Sc1ccccc1N [U0126, reference compound]
Inhibition of SCF-stimulated S6 phosphorylation (pS6): partially blocked
Inhibition of SCF-stimulated ERK phosphorylation (pERK): completely inhibited
